Reference: ChEMBL document CHEMBL4602684, “Siderophores from the Entomopathogenic Fungus Beauveria bassiana” (J Nat Prod, 2020)
Counter-ions that a name gives are not always drawn. Calls of active or inactive are those of the source. The rule behind the calls is not given here.

Tests used:
[1] = Binding affinity to Fe3+ assessed as formation of Fe3+-compound complex incubated for 22 hrs by liquid CAS assay
[2] = Binding affinity to Fe3+ assessed as formation of Fe3+-compound complex stoichiometry ratio of 2:1 by HRESIMS method
[3] = Binding affinity to Fe3+ assessed as formation of Fe3+-compound complex stoichiometry ratio of 1:1 by HRESIMS method
[4] = Binding affinity to Fe3+ assessed as formation of Fe3+-compound complex at 100 ug/disk by CAS agar disk diffusion method
[5] = Binding affinity to Fe3+ assessed as formation of Fe3+-compound complex stoichiometry ratio of 3:1 by HRESIMS method
[6] = Binding affinity to Fe3+ assessed as formation of Fe3+-compound complex in presence of FeCl3 by HRESIMS method

| Structure (SMILES) | EC50 [1] | Activity [2] | Activity [3] | Activity [4] | Activity [5] | Activity [6] |
| --- | --- | --- | --- | --- | --- | --- |
| CC(=O)N(O)CCCCCNC(=O)CCC(=O)N(O)CCCCCNC(=O)CCC(=O)N(O)CCCCCN [DEFEROXAMINE MESYLATE] | 20 µM |  |  |  |  |  |
| CO[C@H]1[C@H](O)[C@H](O)[C@H](OCC/C(C)=C/C(=O)N(O)CCC[C@@H](C(=O)O)N(C)C)O[C@@H]1CO |  | Active | Active | inactive | inactive |  |
| C[C@@](O)(CCO)CC(=O)N(O)CCC[C@@H]1NC(=O)[C@H](CCCN(O)C(=O)C[C@](C)(O)CCO)NC1=O |  |  |  | Active |  | Active |
| C/C(=C\C(=O)N(O)CCC[C@@H]1NC(=O)[C@H](CCCN(O)C(=O)/C=C(\C)CCO[C@@H]2O[C@H](CO)[C@@H](O)[C@H](O)[C@@H]2O)NC1=O)CCOC(=O)[C@H](CCCN(O)C(=O)/C=C(\C)CCO[C@@H]1O[C@H](CO)[C@@H](O)[C@H](O)[C@@H]1O)[N+](C)(C)[O-] | 15.7 µM |  |  | Active |  | Active |
| C/C(=C\C(=O)N(O)CCC[C@@H]1NC(=O)[C@H](CCC[N+](=O)[O-])NC1=O)CCO |  | Active | Active | inactive | inactive |  |
| C/C(=C\C(=O)N(O)CCC[C@@H](N)C(=O)O)CCO |  |  |  | inactive |  |  |
| CO[C@H]1[C@H](O)[C@H](O)[C@H](OCC/C(C)=C/C(=O)N(O)CCC[C@@H](C(=O)O)[N+](C)(C)[O-])O[C@@H]1CO |  | Active | Active | inactive | inactive |  |
| C/C(=C\C(=O)NCCC[C@@H]1NC(=O)[C@H](CCCNC(=O)/C=C(\C)CCO)NC1=O)CCO |  |  |  | inactive |  | inactive |
| CO[C@H]1[C@H](O)[C@H](O)[C@H](OCC/C(C)=C/C(=O)N(O)CCC[C@@H]2NC(=O)[C@H](CCCN(O)C(=O)/C=C(\C)CCO)NC2=O)O[C@@H]1CO |  |  |  | Active |  | Active |
| C/C(=C\C(=O)N(O)CCC[C@@H]1NC(=O)[C@H](CCCN(O)C(=O)/C=C(\C)CCO[C@@H]2O[C@H](CO)[C@@H](O)[C@H](O)[C@@H]2O)NC1=O)CCO |  |  |  | Active |  | Active |
| C/C(=C\C(=O)N(O)CCC[C@@H]1NC(=O)[C@H](CCCN(O)C(=O)C[C@](C)(O)CCO[C@@H]2O[C@H](CO)[C@@H](O)[C@H](O)[C@@H]2O)NC1=O)CCO |  |  |  | Active |  | Active |
| CO[C@H]1[C@H](O)[C@H](O)[C@H](OCC[C@@](C)(O)CC(=O)N(O)CCC[C@@H]2NC(=O)[C@H](CCCN(O)C(=O)/C=C(\C)CCO)NC2=O)O[C@@H]1CO |  |  |  | Active |  | Active |
| C/C(=C\C(=O)N(O)CCC[C@@H]1NC(=O)[C@H](CCCN(O)C(=O)C[C@](C)(O)CCO)NC1=O)CCO |  |  |  | Active |  | Active |
| C/C(=C\C(=O)N(O)CCC[C@@H]1NC(=O)[C@H](CCCN(O)C(=O)/C=C(\C)CCO)NC1=O)CCO | 13 µM |  |  | Active |  | Active |
